ChEMBL document CHEMBL3352668, “Synthesis and antibacterial evaluation of new, unsymmetrical triaryl bisamidine compounds” (Bioorg Med Chem Lett, 2014)
Converted amounts (≈) assume the structure as drawn.

Key:
[1] = test system: Pseudomonas aeruginosa; test: Antimicrobial activity against Pseudomonas aeruginosa PAO1 by CLSI method; type: functional
[2] = (§1) Cytotoxicity against human HeLa cells by MTS assay; type: cell-based; details: HeLa cells
[3] = test system: Escherichia coli; test: Antimicrobial activity against TolC-deficient Escherichia coli by CLSI method; type: functional; details: Escherichia coli; read-out: MIC
[4] = test system: Bacillus anthracis; test: Antimicrobial activity against Bacillus anthracis Sterne by CLSI method; type: functional
[5] = test system: Bacillus subtilis; test: Antimicrobial activity against Bacillus subtilis BD54 by CLSI method; type: functional
[6] = test system: Enterococcus faecalis; test: Antimicrobial activity against vancomycin-resistant Enterococcus faecalis ATCC 51575 by CLSI method; type: functional
[7] = test system: Pseudomonas aeruginosa; test: Antimicrobial activity against mexAB-oprM deficient Pseudomonas aeruginosa PAO1 harboring by CLSI method; type: functional
[8] = test system: Staphylococcus aureus; test: Antimicrobial activity against methicillin-resistant Staphylococcus aureus 1094 by CLSI method; type: functional
[9] = test system: Escherichia coli; test: Antimicrobial activity against TolC+ Escherichia coli 700 by CLSI method; type: functional
[10] = test system: Klebsiella pneumoniae; test: Antimicrobial activity against Klebsiella pneumoniae 13882 by CLSI method; type: functional
[11] = test system: HeLa; test: as §1; type: cell-based; details: hela
[12] = Pseudomonas aeruginosa, PAO1, read-out: MIC
[13] = Bacillus anthracis, Sterne, read-out: MIC
[14] = Bacillus subtilis, BD54, read-out: MIC
[15] = Enterococcus faecalis, ATCC 51575, read-out: MIC
[16] = Staphylococcus aureus, 1094, read-out: MIC
[17] = Escherichia coli, 700, read-out: MIC
[18] = Klebsiella pneumoniae, 13882, read-out: MIC

FC1CN=C(c2ccc3cc(-c4ccc(-c5cc6ccc(C7=NCC(F)CN7)cc6o5)cc4)[nH]c3c2)NC1 (centres undefined)
MIC [1, 12]: 5 µg/mL (≈ 9.81 µM)
CC50 [2]: 47.5 µg/mL (≈ 93.2 µM)
MIC [3]: 0.27 µg/mL (≈ 0.53 µM)
MIC [4, 13]: 0.31 µg/mL (≈ 0.608 µM)
MIC [5, 14]: 0.16 µg/mL (≈ 0.314 µM)
MIC [6, 15]: 0.31 µg/mL (≈ 0.608 µM)
MIC [7]: 2.5 µg/mL (≈ 4.91 µM)
MIC [8, 16]: 0.31 µg/mL (≈ 0.608 µM)
MIC [9, 17]: 1.25 µg/mL (≈ 2.45 µM)
MIC [10, 18]: 0.63 µg/mL (≈ 1.24 µM)

OC1CN=C(c2ccc3cc(-c4ccc(-c5cc6ccc(C7=NCC(O)CN7)cc6o5)cc4)[nH]c3c2)NC1 (centres undefined)
MIC [1, 12]: 6.3 µg/mL (≈ 12.5 µM)
CC50 [2]: 11.9 µg/mL (≈ 23.5 µM)
MIC [3]: 0.16 µg/mL (≈ 0.316 µM)
MIC [4, 13]: 0.55 µg/mL (≈ 1.09 µM)
MIC [5, 14]: 0.08 µg/mL (≈ 0.158 µM)
MIC [6, 15]: 0.31 µg/mL (≈ 0.613 µM)
MIC [7]: 15 µg/mL (≈ 29.7 µM)
MIC [8, 16]: 0.31 µg/mL (≈ 0.613 µM)
MIC [9, 17]: 2.5 µg/mL (≈ 4.94 µM)
MIC [10, 18]: 1.09 µg/mL (≈ 2.16 µM)

c1cc2cc(-c3ccc(-c4cc5ccc(C6=NCCN6)cc5o4)cc3)[nH]c2cc1C1=NCCN1
MIC [1, 12]: 10 µg/mL (≈ 22.4 µM)
CC50 [2]: 9.7 µg/mL (≈ 21.8 µM)
MIC [3]: 0.24 µg/mL (≈ 0.539 µM)
MIC [4, 13]: 0.31 µg/mL (≈ 0.696 µM)
MIC [5, 14]: 0.16 µg/mL (≈ 0.359 µM)
MIC [6, 15]: 0.16 µg/mL (≈ 0.359 µM)
MIC [7]: 15 µg/mL (≈ 33.7 µM)
MIC [8, 16]: 0.16 µg/mL (≈ 0.359 µM)
MIC [9, 17]: 0.47 µg/mL (≈ 1.05 µM)
MIC [10, 18]: 0.94 µg/mL (≈ 2.11 µM)

c1cc2cc(-c3ccc(-c4cn5cc(C6=NCCCN6)ccc5n4)cc3)[nH]c2cc1C1=NCCCN1
MIC [1, 12]: 5 µg/mL (≈ 10.6 µM)
CC50 [11]: 19.7 µg/mL (≈ 41.6 µM)
MIC [3]: 0.31 µg/mL (≈ 0.655 µM)
MIC [4, 13]: 1.25 µg/mL (≈ 2.64 µM)
MIC [5, 14]: 0.08 µg/mL (≈ 0.169 µM)
MIC [6, 15]: 0.63 µg/mL (≈ 1.33 µM)
MIC [7]: 5 µg/mL (≈ 10.6 µM)
MIC [8, 16]: 0.63 µg/mL (≈ 1.33 µM)
MIC [9, 17]: 5 µg/mL (≈ 10.6 µM)
MIC [10, 18]: 5 µg/mL (≈ 10.6 µM)

c1cc2cc(-c3ccc(-c4cc5ccc(C6=NCCN6)cc5[nH]4)cc3)[nH]c2cc1C1=NCCN1
MIC [1, 12]: 7.5 µg/mL (≈ 16.9 µM)
CC50 [11]: 32.5 µg/mL (≈ 73.1 µM)
MIC [3]: 0.16 µg/mL (≈ 0.36 µM)
MIC [4, 13]: 0.31 µg/mL (≈ 0.697 µM)
MIC [5, 14]: 0.12 µg/mL (≈ 0.27 µM)
MIC [6, 15]: 0.16 µg/mL (≈ 0.36 µM)
MIC [7]: 2.5 µg/mL (≈ 5.62 µM)
MIC [8, 16]: 0.16 µg/mL (≈ 0.36 µM)
MIC [9, 17]: 1.25 µg/mL (≈ 2.81 µM)
MIC [10, 18]: 0.24 µg/mL (≈ 0.54 µM)

c1cc2cc(-c3ccc(-c4cc5ccc(C6=NCCCN6)cc5o4)cc3)[nH]c2cc1C1=NCCCN1
MIC [1, 12]: 0.63 µg/mL (≈ 1.33 µM)
CC50 [2]: 26 µg/mL (≈ 54.9 µM)
MIC [3]: 0.16 µg/mL (≈ 0.338 µM)
MIC [4, 13]: 5 µg/mL (≈ 10.6 µM)
MIC [5, 14]: 0.14 µg/mL (≈ 0.296 µM)
MIC [6, 15]: 0.39 µg/mL (≈ 0.824 µM)
MIC [7]: 0.47 µg/mL (≈ 0.992 µM)
MIC [8, 16]: 0.1 µg/mL (≈ 0.211 µM)
MIC [9, 17]: 0.63 µg/mL (≈ 1.33 µM)
MIC [10, 18]: 0.55 µg/mL (≈ 1.16 µM)

c1cc2cc(-c3ccc(-c4cn5ccc(C6=NCCN6)cc5n4)cc3)[nH]c2cc1C1=NCCN1
MIC [1, 12]: 40 µg/mL (≈ 89.8 µM)
CC50 [2]: 2.5 µg/mL (≈ 5.61 µM)
MIC [3]: 0.31 µg/mL (≈ 0.696 µM)
MIC [4, 13]: > 80 µg/mL
MIC [5, 14]: 2.5 µg/mL (≈ 5.61 µM)
MIC [6, 15]: > 80 µg/mL
MIC [7]: > 80 µg/mL
MIC [8, 16]: > 80 µg/mL
MIC [9, 17]: 2.5 µg/mL (≈ 5.61 µM)
MIC [10, 18]: 5 µg/mL (≈ 11.2 µM)

CC1CNC(c2ccc3cc(-c4ccc(-c5cc6ccc(C7=NC(C)CN7)cc6o5)cc4)[nH]c3c2)=N1 (stereo in doubt; P6b)
MIC [1]: 80 µg/mL (≈ 169 µM)
CC50 [11]: 7.6 µg/mL (≈ 16 µM)
MIC [3]: 0.63 µg/mL (≈ 1.33 µM)
MIC [4]: 0.63 µg/mL (≈ 1.33 µM)
MIC [5]: 0.35 µg/mL (≈ 0.739 µM)
MIC [6]: 0.63 µg/mL (≈ 1.33 µM)
MIC [7]: 80 µg/mL (≈ 169 µM)
MIC [8]: 0.55 µg/mL (≈ 1.16 µM)
MIC [9]: 1.09 µg/mL (≈ 2.3 µM)
MIC [10]: 5 µg/mL (≈ 10.6 µM)

c1cc2cc(-c3ccc(-c4cn5ccc(C6=NCCCN6)cc5n4)cc3)[nH]c2cc1C1=NCCCN1
MIC [1, 12]: 40 µg/mL (≈ 84.5 µM)
CC50 [11]: 20.9 µg/mL (≈ 44.1 µM)
MIC [3]: 0.31 µg/mL (≈ 0.655 µM)
MIC [4, 13]: 1.25 µg/mL (≈ 2.64 µM)
MIC [5, 14]: 0.16 µg/mL (≈ 0.338 µM)
MIC [6, 15]: 1.25 µg/mL (≈ 2.64 µM)
MIC [7]: > 80 µg/mL
MIC [8, 16]: 2.5 µg/mL (≈ 5.28 µM)
MIC [9, 17]: 2.5 µg/mL (≈ 5.28 µM)
MIC [10, 18]: 5 µg/mL (≈ 10.6 µM)

c1cc2cc(-c3ccc(-c4nc5ccc(C6=NCCN6)cc5[nH]4)cc3)[nH]c2cc1C1=NCCN1
MIC [1, 12]: 20 µg/mL (≈ 44.9 µM)
CC50 [2]: 8.6 µg/mL (≈ 19.3 µM)
MIC [3]: 0.31 µg/mL (≈ 0.696 µM)
MIC [4, 13]: 5 µg/mL (≈ 11.2 µM)
MIC [5, 14]: 0.16 µg/mL (≈ 0.359 µM)
MIC [6, 15]: 0.63 µg/mL (≈ 1.41 µM)
MIC [7]: 40 µg/mL (≈ 89.8 µM)
MIC [8, 16]: 1.25 µg/mL (≈ 2.81 µM)
MIC [9, 17]: 10 µg/mL (≈ 22.4 µM)
MIC [10, 18]: 20 µg/mL (≈ 44.9 µM)

c1cc2cc(-c3ccc(-c4nc5ccc(C6=NCCCN6)cc5[nH]4)cc3)[nH]c2cc1C1=NCCCN1
MIC [1, 12]: 2.5 µg/mL (≈ 5.28 µM)
CC50 [2]: 27.6 µg/mL (≈ 58.3 µM)
MIC [3]: 0.31 µg/mL (≈ 0.655 µM)
MIC [4, 13]: 0.31 µg/mL (≈ 0.655 µM)
MIC [5, 14]: 0.08 µg/mL (≈ 0.169 µM)
MIC [6, 15]: 0.31 µg/mL (≈ 0.655 µM)
MIC [7]: 2.5 µg/mL (≈ 5.28 µM)
MIC [8, 16]: 0.31 µg/mL (≈ 0.655 µM)
MIC [9, 17]: 2.5 µg/mL (≈ 5.28 µM)
MIC [10, 18]: 5 µg/mL (≈ 10.6 µM)

c1cc2cc(-c3ccc(-c4cc5ccc(C6=NCCCN6)cc5o4)cn3)[nH]c2cc1C1=NCCCN1
MIC [1, 12]: 1.25 µg/mL (≈ 2.63 µM)
CC50 [11]: 15.6 µg/mL (≈ 32.9 µM)
MIC [3]: 0.16 µg/mL (≈ 0.337 µM)
MIC [4, 13]: 0.16 µg/mL (≈ 0.337 µM)
MIC [5, 14]: 0.08 µg/mL (≈ 0.169 µM)
MIC [6, 15]: 0.39 µg/mL (≈ 0.822 µM)
MIC [8, 16]: 0.31 µg/mL (≈ 0.653 µM)
MIC [9, 17]: 1.25 µg/mL (≈ 2.63 µM)
MIC [10, 18]: 1.56 µg/mL (≈ 3.29 µM)
